Tested on: Cells
Assay: Cell viability, CTG luminescence, 72 h (Example 7, Experiment 1)
Assay type: cell-based
Procedure: Cells were cultured in the appropriate medium at 37° C. and 5% CO2 atmosphere. Cells were harvested by trypsinization, spun at 800 rpm for 5 min and resuspended in medium. The cell concentration was adjusted with medium and seeded at a cell density of 3000 cells in 90 μL per well in 96-well plates, and incubated overnight at 37° C. and 5% CO2. After 24 hours, the 1 mM test compound (either Compound 1 or DON) was successively diluted into 7 concentrations according to a three-fold gradient respectively, and 10 μl/well drug was added. The final concentrations were 100 μM, 33.33 μM, 11.11 μM, 3.7 μM, 1.24 μM, 0.41 μM, 0.14 μM, and 0.046 μM. The 100 μM Positive Control drug was successively diluted in 7 concentrations according to a three-fold gradient, and 10 μl/well drug was added. The final concentrations were 10 μM, 3.333 μM, 1.111 μM, 0.37 μM, 0.124 μM, 0.041 μM, 0.014 μM and 0.0046 μM. Cells were incubated for 72 h at 37° C. and 5% CO2. 100 μL CTG reagent was then added to each well. Plates were shaken for 2 min and placed 10 min at room temperature. Luminescence was recorded on Perkin Elmer Envision 2104 Multilabel Reader. IC50's were obtained by fitting curve using GraphPad Prism5 software. In all cases the treatment time was 72 h.

[N-]=[N+]=CC(=O)CC[C@H](N)C(=O)O [DON, 6-Diazo-5-oxo-L-norleucine, reference compound] showed an IC50 (AGS) of 13.8 µM, an IC50 (C3A) of 2.4 µM and an IC50 (Homo sapiens, 143B) of 1.06 µM. It also gave an IC50 (Homo sapiens, 769-P) of 1.85 µM, an IC50 (Homo sapiens, BT-474, 72 h, BT-474) of 15.1 µM and an IC50 (Homo sapiens, BT-549, 72 h, BT-549) of 5.82 µM. For the same compound, the IC50 (Homo sapiens, CAPAN-1, 72 h, Capan-1) was 67.5 µM, the IC50 (Homo sapiens, Daudi) was 0.388 µM and the IC50 (Homo sapiens, HCC1395, 72 h, HCC1395) was 32.3 µM. It also gave an IC50 (Homo sapiens, HCC1806, 72 h, HCC1806) of 0.72 µM, an IC50 (Homo sapiens, HCC1937, 72 h, HCC1937) of 156 µM and an IC50 (Homo sapiens, HCC1954, 72 h, HCC1954) of 0.951 µM. The IC50 (Homo sapiens, HGC-27, 72 h, HGC-27) was 10 µM, the IC50 (Homo sapiens, HL-60, 72 h, HL60) was 3.61 µM and the IC50 (Homo sapiens, Huh-7, 72 h, HuH-7) was 5.94 µM. It also gave an IC50 (Homo sapiens, Jurkat) of 0.368 µM, an IC50 (Homo sapiens, KARPAS-299, 72 h, KARPAS-299) of 0.309 µM and an IC50 (Homo sapiens, KATO III, KATO-III) of 2.96 µM. It also gave an IC50 (Homo sapiens, LN-18, 72 h, LN-18) of 2.71 µM, an IC50 (Homo sapiens, MDA-MB-231, 72 h, MDA-MB-231) of 1.78 µM and an IC50 (Homo sapiens, MDA-MB-361, 72 h, MDA-MB-361) of 235 µM. For the same compound, the IC50 (Homo sapiens, MDA-MB-435S) was 64.4 µM, the IC50 (Homo sapiens, MKN-45, 72 h, MKN-45) was 7.52 µM and the IC50 (Homo sapiens, MOLT-4, 72 h, MOLT-4) was 2.38 µM. The IC50 (Homo sapiens, Malme-3M) was 36.6 µM, the IC50 (Homo sapiens, NCI-H23, 72 h, NCI-H23) was 1.66 µM and the IC50 (Homo sapiens, NCI-H226, 72 h, NCI-H226) was 1.87 µM. The IC50 (Homo sapiens, NCI-H322M) was 4.78 µM, the IC50 (Homo sapiens, NCI-H358, 72 h, NCI-H358) was 0.974 µM and the IC50 (Homo sapiens, NCI-H661, 72 h, NCI-H661) was 70.6 µM. For the same compound, the IC50 (Homo sapiens, NCI-H929, 72 h, NCI-H929) was 11.8 µM, the IC50 (Homo sapiens, NCI-H1299, 72 h, NCI-H1299) was 1.82 µM and the IC50 (Homo sapiens, NCI-H1650, 72 h, NCI-H1650) was 1.89 µM. For the same compound, the IC50 (Homo sapiens, OVCAR-3, 72 h, OVCAR-3) was 31 µM, the IC50 (Homo sapiens, RPMI-7951, 72 h, RPMI-7951) was 3.47 µM and the IC50 (Homo sapiens, Raji) was 2.04 µM. It also gave an IC50 (Homo sapiens, SH-SY5Y) of 4.71 µM, an IC50 (Homo sapiens, SK-MES-1, 72 h, SK-MES-1) of 145 µM and an IC50 (Homo sapiens, SNB-19, 72 h, SNB-19) of 2.03 µM. For the same compound, the IC50 (Homo sapiens, SNU-449, 72 h, SNU-449) was 2.18 µM, the IC50 (Homo sapiens, SW480, 72 h, SW480) was 100 µM and the IC50 (Homo sapiens, T98G) was 1.38 µM. It also gave an IC50 (Homo sapiens, U-937, 72 h, U-937) of 0.566 µM, an IC50 (Homo sapiens, ZR-75-1, 72 h, ZR-75-1) of 101 µM and an IC50 (Homo sapiens, ZR-75-30, 72 h, ZR-75-30) of 982 µM. For the same compound, the IC50 (NAMALWA) was 0.333 µM, the IC50 (RKO) was 3.22 µM and the IC50 (T84) was 100 µM. The IC50 (TT) was 42.9 µM and the IC50 (U266B1) was 0.413 µM.

Reference: US20220117938A1, “COMBINATON THERAPY WITH A DON PRODRUG AND AN IMMUNE CHECKPOINT INHIBITOR” (DRACEN PHARMACEUTICALS, INC., priority 2019, published 2022)
